Source: the NIST ThermoML archive (doi:10.1021/je020138s)

Assays:
[1] = excess molar enthalpy (molar enthalpy of mixing); xn = mol fraction of the nth substance listed; conditions: 101 kPa, Liquid, Calvet calorimetry
[2] = xn = mol fraction of the nth substance listed; conditions: 308.15 K, 101 kPa, Liquid

CCCCOC(=O)CCC [butyl butanoate] + CCCCCCCCCCCC
[1], 308 K
Conditions | excess molar enthalpy [kcal/mol]
x1 = 0.0894 | 0.0705
x1 = 0.1261 | 0.0937
x1 = 0.1734 | 0.123
x1 = 0.205 | 0.137
x1 = 0.2668 | 0.165
x1 = 0.3014 | 0.176
x1 = 0.326 | 0.183
x1 = 0.3509 | 0.188
x1 = 0.4179 | 0.203
x1 = 0.4544 | 0.208
x1 = 0.517 | 0.207
x1 = 0.5526 | 0.207
x1 = 0.6779 | 0.186
x1 = 0.7202 | 0.174
x1 = 0.8233 | 0.128
x1 = 0.8287 | 0.125
x1 = 0.9006 | 0.0808
x1 = 0.9307 | 0.0574

[2]
Conditions | excess molar volume [m3/mol]
x1 = 0.086 | 2.25e-07
x1 = 0.1642 | 4.085e-07
x1 = 0.2326 | 4.99e-07
x1 = 0.3151 | 5.957e-07
x1 = 0.4238 | 6.386e-07
x1 = 0.4435 | 6.409e-07
x1 = 0.5057 | 6.525e-07
x1 = 0.5458 | 6.501e-07
x1 = 0.6564 | 5.883e-07
x1 = 0.6617 | 5.83e-07
x1 = 0.6962 | 5.604e-07
x1 = 0.7365 | 5.311e-07
x1 = 0.7625 | 4.759e-07
x1 = 0.7821 | 4.581e-07
x1 = 0.8186 | 4.073e-07
x1 = 0.8623 | 3.308e-07
x1 = 0.9593 | 1.15e-07

CCCCCCCCO [octan-1-ol] + CCCCCCCCCCCC
[1], 308.15 K
Conditions | excess molar enthalpy [kcal/mol]
x1 = 0.1345 | 0.172
x1 = 0.1898 | 0.187
x1 = 0.2658 | 0.198
x1 = 0.3122 | 0.2
x1 = 0.4077 | 0.199
x1 = 0.4433 | 0.196
x1 = 0.4591 | 0.194
x1 = 0.5302 | 0.186
x1 = 0.5667 | 0.179
x1 = 0.6587 | 0.158
x1 = 0.6595 | 0.16
x1 = 0.7509 | 0.126
x1 = 0.7661 | 0.12
x1 = 0.8263 | 0.0932
x1 = 0.8566 | 0.0782
x1 = 0.8983 | 0.0574
x1 = 0.9353 | 0.0366
x1 = 0.97 | 0.017
